According to the NIST ThermoML archive (doi:10.1016/j.jct.2011.06.007):
Numbers after ± are expanded uncertainties.

Legend:
[1] = for mass density: 101.33 kPa, Liquid, Vibrating tube method
[2] = Molar enthalpy of transition or fusion; conditions: Crystal; DSC
[3] = activity coefficient (dimensionless); of the first substance listed, at infinite dilution; xn = mol fraction of the nth substance listed; conditions: 101 kPa, Liquid, Chromatography, x1 = 0

`CCCC[N+]1(C)CCCC1.N#C[B-](C#N)(C#N)C#N` [1-butyl-1-methylpyrrolidinium tetracyanoborate] gave a mass density ([1]; 318.15 K) of 962.29 ± 1 kg/m3, a mass density ([1]; 328.15 K) of 955.61 ± 1 kg/m3 and a mass density ([1]; 338.15 K) of 949 ± 1 kg/m3. It also gave a mass density ([1]; 348.15 K) of 942.32 ± 1 kg/m3, a mass density ([1]; 358.15 K) of 935.59 ± 1 kg/m3 and a mass density ([1]; 368.15 K) of 928.86 ± 1 kg/m3. For the same compound, the Normal melting temperature ([1]; Crystal, DTA) was 17.30 ± 0.39 °C and the “Molar enthalpy of transition or fusion” value [2] was 8.51 ± 0.184 kcal/mol.
`C1CCCC1` [cyclopentane] + CCCC[N+]1(C)CCCC1.N#C[B-](C#N)(C#N)C#N showed an activity coefficient ([3]; 318.15 K) of 5.87 ± 0.4, an activity coefficient ([3]; 328.15 K) of 5.47 ± 0.37 and an activity coefficient ([3]; 338.15 K) of 5.27 ± 0.36. It also gave an activity coefficient ([3]; 348.15 K) of 5.18 ± 0.35, an activity coefficient ([3]; 358.15 K) of 4.88 ± 0.33 and an activity coefficient ([3]; 368.15 K) of 4.72 ± 0.32.
For `C#CCCCCCC` [1-octyne] + CCCC[N+]1(C)CCCC1.N#C[B-](C#N)(C#N)C#N, the activity coefficient ([3]; 318.15 K) was 4.93 ± 0.34, the activity coefficient ([3]; 328.15 K) was 4.9 ± 0.33 and the activity coefficient ([3]; 338.15 K) was 4.88 ± 0.33. For the same compound, the activity coefficient ([3]; 348.15 K) was 4.85 ± 0.33, the activity coefficient ([3]; 358.15 K) was 4.81 ± 0.33 and the activity coefficient ([3]; 368.15 K) was 4.78 ± 0.33.
Work on `C#CCCCCC` [1-heptyne] + CCCC[N+]1(C)CCCC1.N#C[B-](C#N)(C#N)C#N yielded an activity coefficient ([3]; 318.15 K) of 3.49 ± 0.24, an activity coefficient ([3]; 328.15 K) of 3.5 ± 0.24 and an activity coefficient ([3]; 338.15 K) of 3.51 ± 0.24. For the same compound, the activity coefficient ([3]; 348.15 K) was 3.53 ± 0.24, the activity coefficient ([3]; 358.15 K) was 3.54 ± 0.24 and the activity coefficient ([3]; 368.15 K) was 3.56 ± 0.24.
`CC(C)=O` [acetone] + CCCC[N+]1(C)CCCC1.N#C[B-](C#N)(C#N)C#N gave an activity coefficient ([3]; 318.15 K) of 0.439 ± 0.035, an activity coefficient ([3]; 328.15 K) of 0.441 ± 0.035 and an activity coefficient ([3]; 338.15 K) of 0.454 ± 0.036. The activity coefficient ([3]; 348.15 K) was 0.464 ± 0.036, the activity coefficient ([3]; 358.15 K) was 0.468 ± 0.037 and the activity coefficient ([3]; 368.15 K) was 0.485 ± 0.037.
With `CC(C)OC(C)C` [diisopropyl ether] + CCCC[N+]1(C)CCCC1.N#C[B-](C#N)(C#N)C#N the activity coefficient ([3]; 318.15 K) was 6.08 ± 0.41, the activity coefficient ([3]; 328.15 K) was 5.94 ± 0.4 and the activity coefficient ([3]; 338.15 K) was 5.91 ± 0.4. For the same compound, the activity coefficient ([3]; 348.15 K) was 5.82 ± 0.4, the activity coefficient ([3]; 358.15 K) was 5.75 ± 0.39 and the activity coefficient ([3]; 368.15 K) was 5.68 ± 0.39.
`CC1CCCCC1` [methylcyclohexane] + CCCC[N+]1(C)CCCC1.N#C[B-](C#N)(C#N)C#N gave an activity coefficient ([3]; 318.15 K) of 11.9 ± 0.8, an activity coefficient ([3]; 328.15 K) of 11 ± 0.8 and an activity coefficient ([3]; 338.15 K) of 10.5 ± 0.7. For the same compound, the activity coefficient ([3]; 348.15 K) was 10.1 ± 0.7, the activity coefficient ([3]; 358.15 K) was 9.38 ± 0.64 and the activity coefficient ([3]; 368.15 K) was 8.94 ± 0.61.
For `C1CCOC1` [tetrahydrofuran] + CCCC[N+]1(C)CCCC1.N#C[B-](C#N)(C#N)C#N, the activity coefficient ([3]; 318.15 K) was 0.61 ± 0.043, the activity coefficient ([3]; 328.15 K) was 0.611 ± 0.043 and the activity coefficient ([3]; 338.15 K) was 0.639 ± 0.044. The activity coefficient ([3]; 348.15 K) was 0.652 ± 0.045, the activity coefficient ([3]; 358.15 K) was 0.661 ± 0.045 and the activity coefficient ([3]; 368.15 K) was 0.679 ± 0.046.
`CC(C)CC(C)(C)C` [2,2,4-trimethylpentane] + CCCC[N+]1(C)CCCC1.N#C[B-](C#N)(C#N)C#N showed an activity coefficient ([3]; 318.15 K) of 27.5 ± 1.9, an activity coefficient ([3]; 328.15 K) of 25.4 ± 1.7 and an activity coefficient ([3]; 338.15 K) of 23.5 ± 1.6. For the same compound, the activity coefficient ([3]; 348.15 K) was 22.5 ± 1.5, the activity coefficient ([3]; 358.15 K) was 20.9 ± 1.4 and the activity coefficient ([3]; 368.15 K) was 20 ± 1.4.
`C=CCCCCC` [1-heptene] + CCCC[N+]1(C)CCCC1.N#C[B-](C#N)(C#N)C#N gave an activity coefficient ([3]; 318.15 K) of 10.7 ± 0.7, an activity coefficient ([3]; 328.15 K) of 10.2 ± 0.7 and an activity coefficient ([3]; 338.15 K) of 10 ± 0.7. The activity coefficient ([3]; 348.15 K) was 9.72 ± 0.66, the activity coefficient ([3]; 358.15 K) was 9.09 ± 0.62 and the activity coefficient ([3]; 368.15 K) was 8.93 ± 0.61.
